{"source": "ChEMBL document CHEMBL5385929", "about": "“Tabersonine Enhances Olaparib Sensitivity through FHL1-Mediated Epithelial-Mesenchymal Transition in an Ovarian Tumor” (J Nat Prod, 2024)", "key": {"SK-OV-3": {"test_system": "SK-OV-3", "assay": "Potentiation of olaparib sensitivity in human SK-OV-3 cells transfected with shFHL1-2 RNA assessed as inhibition of cell migration at 10 uM measured after 24 to 48 hrs in presence of olaparib by wound healing assay", "assay_type": "functional, cell-based", "details": "time 24-48 hrs"}, "[1]": {"assay": "Toxicity in BALB/c mouse xenografted with human A2780 cells assessed as animal's death at 30 mg/kg, ip administered every other day and measured on day 6", "assay_type": "organism-based", "details": "in vivo, 144 h, time 6 day"}, "Mus musculus": {"test_system": "Mus musculus", "assay": "Potentiation of olaparib sensitivity in BALB/c mouse xenografted with shFHL1-1 RNA-transfected human A2780 cells assessed as upregulation of E-cadherin protein expression in tumor at 15 mg/kg, ip co-administered with olaparib for 2 weeks by western blot analysis", "assay_type": "functional, organism-based"}, "A2780": {"test_system": "A2780", "assay": "Potentiation of olaparib-induced antitumor activity against human A2780 cells xenografted in BALB/c mouse assessed as decrease in tumor weight at 15 mg/kg, ip co-administered with olaparib for 2 weeks", "assay_type": "functional, organism-based"}}, "note": "The source made the active and inactive calls. No cut-off for these calls is given here."}
{"smiles": "CC[C@]12C=CCN3CC[C@]4(C(=C(C(=O)OC)C1)Nc1ccccc14)[C@@H]32", "note": "[TABERSONINE]", "values": [{"measurement": "Activity", "setting": "SK-OV-3", "value": "inactive"}, {"measurement": "Activity", "setting": "[1]", "value": "Toxic"}, {"measurement": "Activity", "setting": "Mus musculus", "value": "inactive"}, {"measurement": "Activity", "setting": "A2780", "value": "Active"}]}
